Experiment [1] has as its system Mammal complex II. Conditions: ref Mogi et al. [34]; read-out: Siccanin IC50, Mammal, Complex II; cited from earlier work.
In experiment [2] the test system is HDF cells. The experiment can be described thus: Mammalian cell cytotoxicity assay, CCK8, 48 h. The format is cell-based. Conditions: Homo sapiens. How it is done:
(§1) Human colorectal adenocarcinoma cells (DLD-1) and Human Dermal Fibroblasts (HDF) cells were obtained from Taiho Pharmaceutical Company (Tokyo, Japan). DLD-1 cells were cultured in RPMI 1640 medium supplemented with 10% (v/v) heat-inactivated fetal bovine serum (FBS) (Gibco; San Diego, CA, USA); HDF cells were cultured in DMEM/F12 medium supplemented with 10% (v/v) heat-inactivated FBS. For both lines, cells were grown under 5% CO2 at 37 °C in an ACI-165D CO2 incubator (ASTEC; Fukuoka, Japan).
(§2) DLD-1 and HDF cells, (2.5 × 10^4 cells/mL) in 96-well plates, were cultured for 24 h. The cells then were washed with phosphate-buffered saline (PBS) and the medium was replaced with fresh medium supplemented with 10% (v/v) FBS. Medium containing siccanin at various concentrations was added to the wells and the cells were cultured for another 48 h. Controls were treated with medium containing 1% (v/v) DMSO and 10% (v/v) FBS. Next, the cells were washed with PBS and the medium was replaced with fresh medium supplemented with 10% (v/v) FBS. An aliquot (10 µL) of CCK8 solution (Cell Counting Kit-8; Dojindo Laboratories; Kumamoto, Japan) was added to each well and the plates were incubated for another 2 h, at which point absorbance at 450 nm was monitored using a SpectraMax® Paradigm spectrophotometer. The EC50 values were calculated using Prism® ver.6.01. The selectivity was calculated as the ratio between DLD-1 or HDF versus P. falciparum IC50s.

The test system of experiment [3] is DLD-1 cells. Nature of the experiment: Mammalian cell cytotoxicity assay, CCK8, 48 h. The format is cell-based. Conditions: Homo sapiens. How it is done: as §1, §2
Experiment [4] relates to Dd2_DHIQ (ATP4-G358S mutation). The experiment can be described thus: Growth inhibition of Dd2_DHIQ (cipargamin-resistant). The class given is cell-based. Conditions: Plasmodium falciparum, read-out: Growth inhibition EC50, DHIQ. How it is done: (§3) P. falciparum 3D7-yDHODH was prepared and maintained as described previously. P. falciparum Dd2, and Dd2-derived mutant strains were kindly provided by David A. Fidock, and maintained at Nagasaki University essentially as described in reference, except without supplementation with WR99210.
(§4) Synchronized ring-form parasites (0.3% parasitemia) were prepared in complete medium containing different concentration of various compounds (at a fixed final DMSO concentration of 0.1% (v/v)) and distributed to 96-well plates at 100 μL/well. After 72 h of incubation, parasite growth was monitored by the previously described lactate dehydrogenase (PfLDH)-based assay method; plates were read using a SpectraMax® Paradigm spectrophotometer (Molecular Devices, Inc.; San Jose, CA, USA). EC50 values were calculated using Prism® ver.6.01 (GraphPad; San Diego, CA, USA). Values are presented as the means of three independent experiments.

Experiment [5] concerns Dd2_048 (PI4K-S743T mutation). The experiment can be described thus: Growth inhibition of Dd2_048 (MMV390048-resistant). The format is cell-based. Conditions: Plasmodium falciparum, read-out: Growth inhibition EC50, 048. How it is done: as §3, §4
Experiment [6] relates to P. falciparum Dd2. The experiment can be described thus: Growth inhibition of Dd2 parent. The class given is cell-based. Conditions: Plasmodium falciparum, DD2, read-out: Growth inhibition EC50, Dd2. As to the method:
as §3, §4

For experiment [7], the system named is P. falciparum 3D7. The experiment can be described thus: Drug sensitivity assay, 72 h, PfLDH-based. The class given is cell-based. Conditions: Plasmodium falciparum. How it is done: The P. falciparum 3D7 strain was cultured, as described previously, in 3% hematocrit type A human red blood cells (RBCs) in RPMI1640 medium (Invitrogen; San Diego, CA, USA) supplemented with 25 mM sodium hydrogen biocarbonate, 10 μg/mL hypoxanthine, 40 μg/mL gentamicin sulfate, and 0.5% (w/v) Albumax II (Invitrogen) (“complete medium”). Cultures were maintained in a MG-70M multi-gas incubator (Taitec) under the conditions of 5% O2, 5% CO2, and 90% N2 at 37 °C. The medium was replaced daily. Parasitemia was measured by thin blood smears stained with Giemsa. In our previous study, we generated mutant P. falciparum strains expressing either disrupted or full-length versions of the flavoprotein (Fp) subunit (encoded by the Pfsdha gene). Both strains were cultured in complete medium at 3% hematocrit supplemented with 5 nM WR99210 (Jacobus Pharmaceuticals; Plainsboro, NJ, USA). The experiments using human RBCs were performed under the guidelines of Research Ethics Committee of the Faculty of Medicine of the University of Tokyo and Institutional Review Board (IRB) of Nagasaki University (Permission nos. 10050 and no. 19, respectively). Human RBCs were obtained from The Japanese Red Cross Society. The synchronization of parasite cultures was performed by treating with 5% (w/v) sorbitol for 10 min [77].
as §4

The subject of experiment [8] is T. mentagrophytes complex II. Further details: method as in PMID 4250609. Conditions: ref [31]; read-out: IC50, T. mentagrophytes enzyme; cited from earlier work.

SMILES strings stand for the structures. Read-outs that look alike come from different tables or passages of the source.

With `Cc1cc(O)c2c(c1)O[C@@]1(C)CC[C@H]3C(C)(C)CCC[C@]34CO[C@@H]2[C@H]41` [Siccanin], the 50% inhibitory concentration (IC50) in experiment [1] is 861 µM; in experiment [2] (HDF cells, read-out: Siccanin IC50, Mammal, Growth) it was 16.1 µM; in experiment [3] (DLD-1 cells, read-out: Siccanin IC50, Mammal, Growth), 34.2 µM; in experiment [7] (3D7, read-out: Growth IC50, parent (wild-type) 3D7), 6.1 ± 1 µM; in experiment [7] (3D7, 72 h, 5 mM fumarate, read-out: Growth IC50 in presence of fumarate), 11.5 ± 1.09 µM; in experiment [7] (3D7, 72 h, 5 mM succinate, read-out: Growth IC50 in presence of succinate), 10.8 ± 2.16 µM. In addition, the IC50 in experiment [7] (3D7, 72 h, no succinate or fumarate added, read-out: Growth IC50, P. falciparum) was 8.4 µM; in experiment [8] it was approximately 0.09 µM. The EC50 in experiment [2] (HDF, 48 h, read-out: 50% effective concentration (EC50), growth of HDF cells) came to 16.1 ± 1.21 µM; in experiment [3] (DLD-1, 48 h, read-out: 50% effective concentration (EC50), growth of DLD-1 cells) it was 34.2 ± 2.73 µM; in experiment [4], 16.4 µM; in experiment [5], 13.5 µM; in experiment [6] it was 12.4 µM; in experiment [7] (3D7, Figure 6a, read-out: Growth inhibition EC50, 3D7 (parent)), 11.7 µM.

In general, IC50 refers to the point on the concentration scale where inhibition reaches its midpoint.
